Measured values from patent US8791258B2, “Pro-fluorescent probes” (The Regents of the University of California, priority 2008, dated 2014).

Tests used:
[1] = Fluorescence response to various ROS (H2O2 selectivity); details: 20 mM HEPES, pH 7, 25° C.
Protocol: FIG. 7 is the fluorescence response of 5 μM PF1 to various ROS (10 mM O2^−, 100 μM for all other ROS). .OH and .Ot-Bu were generated by reaction of Fe^2+ with H2O2 or tert-butyl hydroperoxide (TBHP), respectively. NO was delivered using S-nitrosocysteine (SNOC). Spectra were acquired in 20 mM HEPES, pH 7, and all data were obtained after incubation with the appropriate ROS at 25° C. for 1 h. Collected emission was integrated between 460 and 700 nm (λexc=450 nm).
FIG. 8 is the fluorescence response of 5 μM PR1 to various ROS (10 mM O2^−, 100 μM for all other ROS). .OH and .O^tBu were generated by reaction of Fe^2+ with H2O2 or tert-butyl hydroperoxide (TBHP), respectively. NO was delivered using S-nitrosocysteine (SNOC). Spectra were acquired in 20 mM HEPES, pH 7, and all data were obtained after incubation with the appropriate ROS at 25° C. for 30 min. Collected emission was integrated between 570 and 800 nm (λexc=560 nm).
FIG. 9 is the fluorescence response of 10 μM PX1 to various ROS (10 mM O2^−, 100 μM for all other ROS). .OH and .Ot-Bu were generated by reaction of Fe^2+ with H2O2 or tert-butyl hydroperoxide (TBHP), respectively. NO was delivered using S-nitrosocysteine (SNOC). Spectra were acquired in 20 mM HEPES, pH 7, and all data were obtained after incubation with the appropriate ROS at 25° C. for 1 h. Collected emission was integrated between 370 and 600 nm (λexc=350 nm).
(§1) Millipore water was used to prepare all aqueous solutions. All spectroscopic measurements were performed in 20 mM HEPES buffer, pH 7. Absorption spectra were recorded using a Varian Cary 50 spectrophotometer (Walnut Creek, Calif.). Fluorescence spectra were recorded using a Photon Technology International Quanta Master 4 L-format scanning spectrofluorometer (Lawrenceville, N.J.) equipped with an LPS-220B 75-W xenon lamp and power supply, A-1010B lamp housing with integrated igniter, switchable 814 photon-counting/analog photomultiplier detection unit, and MD5020 motor driver. Samples for absorption and fluorescence measurements were contained in 1-cm×1-cm quartz cuvettes (1.4- or 3.5-mL volume, Starna, Atascadero, Calif.).
FIG. 7, FIG. 8 and FIG. 9 compare the relative reactivities of boronate-based PF1, PR1, and PX1, respectively, toward various ROS.

[2] = test system: HEK cells; test: Confocal and two-photon fluorescence imaging of H2O2 in live HEK cells
Protocol: (a) Fluorescence image of HEK cells incubated with 5 μM PF1 for 5 min at 25° C. (b) Fluorescence image of PF1-stained HEK cells treated with 100 μM H2O2 for 11 min at 25° C. Excitation was provided at 488 nm, and emission was collected in a window from 505 to 580 nm. Scale bar=27 μm.
(a) Fluorescence image of HEK cells incubated with 10 μM PR1 for 10 min at 25° C. (b) Fluorescence image of PR1-stained HEK cells treated with 100 μM H2O2 for 30 min at 25° C. Excitation was provided at 543 nm, and emission was collected in a window from 548 to 644 nm. Scale bar=18 μm.
(a) Fluorescence image of HEK cells incubated with 10 μM PX1 for 2-3 min at 25° C. (b) Fluorescence image of PX1-stained HEK cells treated with 100 μM H2O2 for 30 min at 25° C. Two-photon excitation was provided at 704 nm, and emission was collected in a window from 420 to 500 nm. Scale bar=18 μm.
HEK 293T cells were cultured in Dulbecco's Modified Eagle Medium (DMEM, Invitrogen, Carlsbad, Calif.) supplemented with 10% Fetal Bovine Serum (FBS, Invitrogen), glutamine (2 mM), and penicillin/streptomycin (50 μg/ml, Invitrogen). One day before imaging, cells were passed and plated on 18-mm glass coverslips coated with poly-L-lysine (50 μg/ml, Sigma, St. Louis, Mo.). Immediately before the experiments, cells were washed with PBS buffer, incubated with the probe in PBS, and imaged.
Confocal fluorescence imaging was performed with a Zeiss LSM510 META laser scanning microscope containing an Axioplan 2 MOT upright microscope and a 40× water-immersion objective lens. Excitation of PF1-loaded cells at 488 nm was carried out with an argon ion laser, and emission was Collected in a window from 505 nm to 580 nm using a META detection system. Excitation of PR1-loaded cells at 543 nm was carried out with a HeNe laser, and emission was collected in a window from 548 nm to 644 nm using a META detector. PF1 or PR1 were incubated with live cell samples for 5 to 10 min. Addition of H2O2 (10 to 100 μM) to cell samples was performed directly on the microscope stage by bath application to the media.
Two-photon fluorescence imaging of PX1 was carried out using an inverted Zeiss LSM510 Axiovert 200M microscope with a NeoFLUAR 40×/1.3 NA oil-immersion objective lens. Samples were excited by 704-nm pulses from a mode-locked Ti:Sapphire laser (Tsunami, SpectraPhysics, 120-150 fs pulse width, 80 MHz repetition rate). The emission light was filtered with a 80-nm wide bandpass filter centered at 460 nm (460BP40, Chroma) and detected with the non-descanned detector (NDD) of the LSM510.

[3] = cited from earlier work
[4] = Absorption and emission properties, fluorescence quantum yield; format: physicochemical; details: 20 mM HEPES, pH 7; for fluorescence quantum yield Φ: by reference to fluorescein; for extinction coefficient ε at 510 nm: λabs 510 nm
Protocol: as §1
as §1, with “recorded on” for “recorded using”, “Creek, Calif.) and fluorescence” for “Creek, Calif.). Fluorescence”, “and emission” for “and fluorescence”, “cuvettes (1.5-mL” for “cuvettes (1.4- or 3.5-mL”, “Calif.). Fluorescence quantum yields were determined by reference to fluorescein in 0.1M NaOH (Φ=0.95).” for “Calif.).”

[5] = test system: HeLa cells; format: cell-based; details: 5 μM probe; 50 nM MitoTracker Deep Red, 500 nM LysoTracker Red
Protocol: 100 μM H2O2 was then added to one of the petri dishes. At 20 minutes, 50 nM MitoTracker Deep Red, 500 nM Lysotracker Red, and 1 μM Hoechst 33342 were added to both dishes. After an additional 20 minutes (40 minute stimulation total), the two coverslips were put in a single, new petri dish filled with fresh DPBS and confocal images were taken (3.2 μsec pixel time, 100% laser power for 514 line, 4.1% laser power for the 633 line, 26% laser power for the 543 line, scanned using 12-bit multi-track scan mode using a constant receiver gain). Shown above are signals from MitoPY1 (a), MitoTracker Deep Red (b), LysoTracker Red (c), an overlay of MitoTracker Deep Red and MitoPY1 (d), Hoechst (e), and a brightfield image (f) of cells not treated with H2O2, as well as signals from MitoPY1 (g), MitoTracker Deep Red (h), LysoTracker Red (i), an overlay of MitoTracker Deep Red and MitoPY1 (j), Hoechst (k), and a brightfield image (l) of cells treated with H2O2. A 20 μm scale bar shown for all images.
HeLa cells incubated with 5 μM MitoPY1 for 60 min at 37° C. and imaged with MitoPY1 (a), MitoTracker Red and Hoechst (overlay, b), and MitoPY1 with MitoTracker Red (overlay, c). HeLa cells incubated with 5 μM MitoPY1 for 60 min at 37° C. with 100 μM H2O2 added for the final 40 min and imaged with MitoPY1 (d), MitoTracker Red and Hoechst (overlay, e), MitoPY1 and MitoTracker Red (overlay, f), and brightfield (g) with 20 μm scale bar. HeLa cells incubated with 5 μM MitoPY1 for 60 min at 37° C. and imaged with MitoPY1 (h), MitoTracker Red and Hoechst (overlay, i), and MitoPY1 with MitoTracker Red (overlay, j). HeLa cells incubated for 24 h with 1 mM paraquat, then washed and incubated with 5 μM MitoPY1 for 60 min at 37° C. and imaged with MitoPY1 (k), MitoTracker Red and Hoechst (overlay, l), MitoPY1 and MitoTracker Red (overlay, m), and brightfield (n) with 20 μm scale bar.
HEK293 cells were cultured in DMEM (Invitrogen) supplemented with 10% fetal bovine serum (FBS, Hyclone) and glutamine (2 mM). CHO.K1 cells were cultured in DMEM with F-12 supplements, glutamax (Invitrogen), and 5% FBS. Cos-7 cells were cultured in DMEM with high glucose, glutamax, 10% FBS, and non-essential amino acids (Invitrogen). HeLa cells were cultured in DMEM with high glucose, glutamax, and 10% FBS. Two days before imaging, cells were passaged and plated on 18-mm glass coverslips. For all experiments, solutions of dyes (from 5 mM stocks in DMSO) were made in DBPS with calcium chloride and magnesium chloride (Sigma). H2O2 was added by bath application to the medium from a 100 mM aqueous stock. For paraquat treatment, HeLa cells were cultured as described above. One day prior to imaging, 1 mM paraquat was added to cells from a 0.5 M stock solution in water. An equal amount of water was added to control cells at the same time. Cells were then incubated at 37° C., 5% CO2. After 24 hours, the media was exchanged for DPBS with 5 μM dye and incubated for 1 hour.
Confocal fluorescence imaging studies were performed with a Zeiss LSM510 NLO Axiovert 200 laser scanning microscope and a 63× Achroplan IR water-immersion objective lens. Excitation of PY-loaded cells at 510 nm was carried out with an Ar laser and emission was collected using a META detector between 527-580 nm. MitoTracker Deep Red was excited with a 633-nm line and emission was collected between 666-698 nm. LysoTracker Red was excited with a 543-nm line and emission was collected between 580-644 nm. Excitation of Hoechst 33342 was carried out using a MaiTai two-photon laser at 780-nm pulses (mode-locked Ti:sapphire laser, Tsunami Spectra Physics) and emission was collected between 452-537 nm. Image analysis was performed in Adobe Photoshop.
MitoPY1 was tested for its ability to both target the mitochondria and respond to H2O2 in living biological systems. […] Again, co-staining with MitoTracker confirms that the dye is retained in the mitochondria and detects localized rises in H2O2 concentrations.

CC1(C)OB(c2ccc3c(c2)Oc2cc(B4OC(C)(C)C(C)(C)O4)ccc2N3)OC1(C)C [PR1, 3,7-Bis(pinacolatoboron)phenoxazine]
higher response for H2O2 over .OH ([1]; 100 μM ROS, .OH from Fe2+ with H2O2): > 200 fold | higher response for H2O2 over .OtBu ([1]; 100 μM ROS, .OtBu from Fe2+ with TBHP): > 200 fold | higher response for H2O2 over NO ([1]; 100 μM ROS, NO delivered using SNOC): > 200 fold | higher response for H2O2 over O2− ([1]; 10 mM O2−, 100 μM H2O2): > 1000 fold | intracellular background fluorescence of probe-loaded cells before H2O2 ([2]; 5-10 μM probe, 2-10 min at 25° C.): virtually no background fluorescence | cell viability during imaging ([2]; after probe incubation and H2O2 treatment, brightfield): cells are viable throughout the experiments | membrane permeability / cell entry ([2]; live HEK cells): membrane-permeable | intracellular fluorescence after addition of H2O2 ([2]; probe-loaded cells, 10-100 μM H2O2): Striking increases in intracellular red fluorescence

O=C(O)c1ccccc1C1c2cc(Cl)c(O)cc2Oc2cc(O)c(Cl)cc21 [DCFH, 2′,7′-dichlorodihydrofluorescein]
fluorescence increase by reaction with .OH or peroxynitrite (ONOO−) ([3]; .OH or ONOO−): ca. 7000 fold | fluorescence increase upon addition of H2O2, previously reported probes ([3]; H2O2): 190 fold | fluorescence increase with NO ([3]; NO): 150 fold | fluorescence increase with O2− ([3]; O2−): 67 fold | fluorescence increase upon light-induced autoxidation ([3]; light-induced autoxidation): 2000 fold

O=C1OC2(c3ccc(O)cc3Oc3cc(N4CCN(CCCC[P+](c5ccccc5)(c5ccccc5)c5ccccc5)CC4)ccc32)c2ccccc21 (centres unmarked) [MitoPY1ox]
fluorescence quantum yield Φ [4]: 0.405 | extinction coefficient ε at 510 nm [4]: 22,300 M^−1 cm^−1 | subcellular localization (co-staining with MitoTracker Deep Red, LysoTracker Red) [5]: only MitoPY1 targets the mitochondria

CC(=O)N1CCN(c2ccc3c(c2)Oc2cc(B4OC(C)(C)C(C)(C)O4)ccc2C32OC(=O)c3ccccc32)CC1 (centres unmarked) [ContPY1]
fluorescence quantum yield Φ [4]: 0.018 | extinction coefficient ε at 515 nm of the corresponding rhodol formed with H2O2 ([4]; after reaction with H2O2, 515 nm): 38,200 M^−1 cm^−1 | fluorescence quantum yield Φ of the corresponding rhodol formed with H2O2 ([4]; after reaction with H2O2, λem 543 nm): 0.388 | extinction coefficient ε at 404 nm ([4]; λabs 404 nm): 4,100 M^−1 cm^−1 | extinction coefficient ε at 490 nm ([4]; λabs 490 nm): 15,600 M^−1 cm^−1 | extinction coefficient ε at 510 nm [4]: 16,130 M^−1 cm^−1 | subcellular localization (co-staining with MitoTracker Deep Red, LysoTracker Red) [5]: only MitoPY1 targets the mitochondria
